Measurements taken from the NIST ThermoML archive (doi:10.1016/j.jct.2016.05.019).
“And” between values parts separate entries of the source, which are not always exact repeats. Identical values can stand only once.

Settings: Liquid; for mass density: Bellows volumetry

CCC(C)C [2-methylbutane]
Settings | mass density
280 K, 1000 kPa | 633.54 kg/m3
280 K, 2000 kPa | 634.7 kg/m3
280 K, 3000 kPa | 635.86 kg/m3
280 K, 5000 kPa | 638.02 kg/m3
280 K, 10000 kPa | 643.42 kg/m3
280 K, 20000 kPa | 653.11 kg/m3
280 K, 30000 kPa | 661.46 kg/m3
280 K, 40000 kPa | 669.03 kg/m3
280 K, 50000 kPa | 675.94 kg/m3
280 K, 60000 kPa | 682.44 kg/m3
280 K, 70000 kPa | 688.43 kg/m3
280 K, 80000 kPa | 694.03 kg/m3
280 K, 90000 kPa | 699.3 kg/m3
280 K, 100000 kPa | 704.35 kg/m3
280 K, 120000 kPa | 713.77 kg/m3
280 K, 140000 kPa | 722.2 kg/m3
280 K, 160000 kPa | 729.89 kg/m3
280 K, 180000 kPa | 737.33 kg/m3
280 K, 200000 kPa | 744.07 kg/m3
298.14 K, 10200 kPa | 627.35 kg/m3
298.14 K, 40600 kPa | 656.53 kg/m3
298.14 K, 101400 kPa | 694.83 kg/m3
298.14 K, 177400 kPa | 727.57 kg/m3
300 K, 1000 kPa | 613.77 kg/m3
300 K, 2000 kPa | 615.18 kg/m3
300 K, 3000 kPa | 616.54 kg/m3
300 K, 5000 kPa | 619.26 kg/m3
300 K, 10000 kPa | 625.53 kg/m3
300 K, 20000 kPa | 636.61 kg/m3
300 K, 30000 kPa | 646.19 kg/m3
300 K, 40000 kPa | 654.71 kg/m3
300 K, 50000 kPa | 662.36 kg/m3
300 K, 60000 kPa | 669.45 kg/m3
300 K, 70000 kPa | 675.91 kg/m3
300 K, 80000 kPa | 682.03 kg/m3
300 K, 90000 kPa | 687.64 kg/m3
300 K, 100000 kPa | 692.98 kg/m3
300 K, 120000 kPa | 702.76 kg/m3
300 K, 140000 kPa | 711.75 kg/m3
300 K, 160000 kPa | 719.81 kg/m3
300 K, 180000 kPa | 727.5 kg/m3
300 K, 200000 kPa | 734.71 kg/m3
320 K, 199 kPa | 592.04 kg/m3
320 K, 210 kPa | 592.07 kg/m3
320 K, 315 kPa | 592.25 kg/m3
320 K, 502 kPa | 592.61 kg/m3
320 K, 1000 kPa | 593.5 kg/m3 and 592.72 kg/m3
320 K, 2000 kPa | 595.25 kg/m3 and 594.35 kg/m3
320 K, 3000 kPa | 596.07 kg/m3
320 K, 5000 kPa | 599.33 kg/m3
320 K, 10000 kPa | 606.77 kg/m3
320 K, 20000 kPa | 619.58 kg/m3
320 K, 30000 kPa | 630.46 kg/m3
320 K, 40000 kPa | 639.89 kg/m3
320 K, 50000 kPa | 648.39 kg/m3
320 K, 60000 kPa | 656.03 kg/m3
320 K, 70000 kPa | 662.98 kg/m3
320 K, 80000 kPa | 669.62 kg/m3
320 K, 90000 kPa | 675.83 kg/m3
320 K, 100000 kPa | 681.48 kg/m3
320 K, 120000 kPa | 691.83 kg/m3
320 K, 140000 kPa | 701.5 kg/m3
320 K, 160000 kPa | 710.26 kg/m3
320 K, 180000 kPa | 718.37 kg/m3
320 K, 200000 kPa | 725.65 kg/m3
323.13 K, 49030 kPa | 645.8 kg/m3
323.13 K, 98070 kPa | 678.79 kg/m3
323.13 K, 147100 kPa | 703.2 kg/m3
323.13 K, 196130 kPa | 722.79 kg/m3
340 K, 338 kPa | 569.61 kg/m3
340 K, 420 kPa | 569.78 kg/m3
340 K, 513 kPa | 570.01 kg/m3
340 K, 1000 kPa | 571.14 kg/m3 and 570.66 kg/m3
340 K, 2000 kPa | 572.85 kg/m3
340 K, 3000 kPa | 574.98 kg/m3
340 K, 5000 kPa | 578.97 kg/m3
340 K, 10000 kPa | 587.99 kg/m3
340 K, 20000 kPa | 602.92 kg/m3
340 K, 30000 kPa | 615.28 kg/m3
340 K, 40000 kPa | 625.82 kg/m3
340 K, 50000 kPa | 635.12 kg/m3
340 K, 60000 kPa | 643.45 kg/m3
340 K, 70000 kPa | 651.03 kg/m3
340 K, 80000 kPa | 658.05 kg/m3
340 K, 90000 kPa | 664.53 kg/m3
340 K, 100000 kPa | 670.52 kg/m3
340 K, 120000 kPa | 681.53 kg/m3
340 K, 140000 kPa | 691.52 kg/m3
340 K, 160000 kPa | 700.49 kg/m3
340 K, 180000 kPa | 708.89 kg/m3
340 K, 200000 kPa | 716.61 kg/m3
360 K, 550 kPa | 544.65 kg/m3
360 K, 608 kPa | 544.68 kg/m3
360 K, 609 kPa | 544.84 kg/m3
360 K, 702 kPa | 545.09 kg/m3
360 K, 1000 kPa | 545.87 kg/m3 and 545.89 kg/m3
360 K, 2000 kPa | 548.79 kg/m3
360 K, 3000 kPa | 551.5 kg/m3
360 K, 5000 kPa | 556.57 kg/m3
360 K, 10000 kPa | 567.71 kg/m3
360 K, 20000 kPa | 585.18 kg/m3
360 K, 30000 kPa | 599.16 kg/m3
360 K, 40000 kPa | 610.91 kg/m3
360 K, 50000 kPa | 621.15 kg/m3
360 K, 60000 kPa | 630.27 kg/m3

340 K
Settings | mass density [kg/m3] | vapor or sublimation pressure [kPa]
– | 569.21 | 328
